Where two headings read alike, the source gives them in different places.
Tested on: bacteria
[1] = A. calcoaceticus AC002, agarose dilution
[2] = E. cloacae ECL007, agarose dilution
[3] = E. coli ECO005, agarose dilution
[4] = E. faecalis EFS001, agarose dilution
[5] = E. faecalis EFS008, agarose dilution
[6] = K. pneumoniae KP001, agarose dilution
[7] = P. aeruginosa PA004, agarose dilution
[8] = S. aureus SA014, agarose dilution
[9] = S. aureus SA093, agarose dilution
[10] = S. epidermidis SE010, agarose dilution
[11] = S. maltophilia SMA002, agarose dilution
[12] = S. marcescens SMS003, agarose dilution

Substance	MIC [1] [µg/mL]	MIC [2] [µg/mL]	MIC [3] [µg/mL]	MIC [4] [µg/mL]	MIC [5] [µg/mL]	MIC [6] [µg/mL]	MIC [7] [µg/mL]	MIC [8] [µg/mL]	MIC [9] [µg/mL]	MIC [10] [µg/mL]	MIC [11] [µg/mL]	MIC [12] [µg/mL]	MIC (E. cloacae ECL007) [µg/mL]	MIC (S. epidermidis SE010) [µg/mL]	MIC (S. maltophilia SMA002) [µg/mL]	MIC (S. marcescens SMS003) [µg/mL]	also measured
I L R W P W W P W A R K [MBI 11H10CN]	4	>128	16	2	8	16	>128	4	1	4	64	>128					
I L R W P W W P W R A K [MBI 11H11CN]	4	>128	16	2	8	16	>128	4	1	4	64	>128					
I L R W P W W P W R R A [MBI 11H12CN]	4	>128	16	2	8	16	>128	2	1	4	64	>128					
ILRWPWWPWRRKDMILKKAGS [MBI 11B18CN]													>128	4	64	>128	MIC (A. calcoaceticus AC002): 2 µg/mL; MIC (E. coli ECO005): 32 µg/mL; MIC (E. faecalis EFS008): 4 µg/mL; MIC (K. pneumoniae KP001): 32 µg/mL; MIC (P. aeruginosa PA004): >128 µg/mL; MIC (S. aureus SA093): 2 µg/mL
ILRWPWWPWRRKMILKKAGS [MBI 11B17CN]													>128	4	32	>128	MIC (A. calcoaceticus AC002): 2 µg/mL; MIC (E. coli ECO005): 8 µg/mL; MIC (E. faecalis EFS008): 4 µg/mL; MIC (K. pneumoniae KP001): 16 µg/mL; MIC (P. aeruginosa PA004): >128 µg/mL; MIC (S. aureus SA093): 2 µg/mL
I L R W P W W P W R R K [MBI 11B7CNF12]	4	>128	16	2	8	16	>128	2	1	4	64	>128					
I L R Y V Y Y V Y R R K [MBI 11A8CN]													>128	6	32	>128	MIC (A. calcoaceticus AC002): 8 µg/mL; MIC (E. coli ECO005): 32 µg/mL; MIC (E. faecalis EFS001): 4 µg/mL; MIC (K. pneumoniae KP001): 128 µg/mL; MIC (P. aeruginosa PA004): >128 µg/mL; MIC (S. aureus SA093): 1 µg/mL
K R R W P W W P W R L I [MBI 11B7CNR]													64	4	32	>128	MIC (A. calcoaceticus AC002): 4 µg/mL; MIC (E. coli ECO005): 8 µg/mL; MIC (E. faecalis EFS001): 4 µg/mL; MIC (K. pneumoniae KP001): 8 µg/mL; MIC (P. aeruginosa PA004): 64 µg/mL; MIC (S. aureus SA093): 2 µg/mL
K R R W V W W V W R L I [MBI 11F4CNR]													32	3	32	>128	MIC (A. calcoaceticus AC002): 16 µg/mL; MIC (E. coli ECO005): 32 µg/mL; MIC (E. faecalis EFS008): 32 µg/mL; MIC (K. pneumoniae KP001): 32 µg/mL; MIC (P. aeruginosa PA004): 64 µg/mL; MIC (S. aureus SA093): 8 µg/mL
L K K W P W W P W R R K [MBI 11D1CN]													>128	8		>128	MIC (A. calcoaceticus AC001): >128 µg/mL; MIC (E. coli ECO002): 16 µg/mL; MIC (E. faecalis EFS002): 32 µg/mL; MIC (E. faecium EFM001): 16 µg/mL; MIC (K. pneumoniae KP002): 64 µg/mL; MIC (P. aeruginosa PA003): >128 µg/mL; MIC (S. aureus SA004): 2 µg/mL; MIC (S. maltophilia SMA001): 64 µg/mL
L R W W W P W R R K [MBI 11G25CN]	2	>128	8	2	16	16	64	2	1	2	32	>128					
P W W P W R R K [MBI 11D3CN]													>128				MIC (A. calcoaceticus AC001): >128 µg/mL; MIC (E. coli ECO002): 64 µg/mL; MIC (E. faecalis EFS002): 32 µg/mL; MIC (E. faecium EFM003): 8 µg/mL; MIC (K. pneumoniae KP002): >128 µg/mL; MIC (P. aeruginosa PA024): >128 µg/mL; MIC (S. aureus SA009): 8 µg/mL; MIC (S. maltophilia SMA001): 64 µg/mL; MIC (S. marcescens SMS004): >128 µg/mL
W R W W K P K W R W P K W [MBI 11J02CN]	4	64	4	4	16	4	32	2	1	2	8	>128					
W W K K W P W W P W R R K [MBI 11C5CN]													>128		16		MIC (A. calcoaceticus AC001): 32 µg/mL; MIC (E. coli ECO001): 8 µg/mL; MIC (E. faecalis EFS002): 16 µg/mL; MIC (E. faecium EFM003): 2 µg/mL; MIC (K. pneumoniae KP002): 16 µg/mL; MIC (P. aeruginosa PA003): 64 µg/mL; MIC (S. aureus SA009): 2 µg/mL; MIC (S. epidermidis SE002): 2 µg/mL; MIC (S. marcescens SMS004): >28 µg/mL
W W P W R R K [MBI 11D9M8]	128	>128	>128	8	128	>128	>128	128	8	128	>128	>128					MIC (E. faecalis EFS002): 128 µg/mL; MIC (E. faecium EFM002): 32 µg/mL; MIC (S. aureus SA007): 32 µg/mL; MIC (S. aureus SA016): 128 µg/mL
W W R W P W W P W R R K [MBI 11A10CN]	4	64	16	4	16	16	64	4	2	4	32	>128					
i L K K W P W W P W R R k [MBI 11E3CN]													>128				MIC (A. calcoaceticus AC001): 16 µg/mL; MIC (E. coli ECO001): 4 µg/mL; MIC (E. faecalis EFS004): 8 µg/mL; MIC (E. faecium EFM003): 2 µg/mL; MIC (H. influenzae HIN002): >128 µg/mL; MIC (K. pneumoniae KP002): 32 µg/mL; MIC (P. aeruginosa PA041): 64 µg/mL; MIC (P. mirabilis PM001): >128 µg/mL; MIC (S. aureus SA010): 2 µg/mL; MIC (S. epidermidis SE002): 1 µg/mL; MIC (S. maltophilia SMA001): 32 µg/mL; MIC (S. marcescens SMS004): >128 µg/mL; MIC (S. pneumoniae SBSPN2): >128 µg/mL; MIC (S. pneumoniae SPN044): >128 µg/mL; MIC (S. pyogenes SPY002): 16 µg/mL
